Source: the pKa sets of Baltruschat and Czodrowski (2020)

| Compound | pKa (acidic group) | pKa (basic group) |
| --- | --- | --- |
| O=C(O)c1cccc(I)c1 | 3.83 |  |
| NC(=O)C(N)Cc1c[nH]cn1 (centres undefined) |  | 7.64 |
| CC1=CC(=O)CC(=O)O1 | 5 |  |
| Cc1c[nH+]c([O-])nc1N |  | 4.69 |
| CCCNc1ncnc2c1cnn2C |  | 4.25 |
| O=C1/C(=C2\C=CC=CN2)C(=O)c2cc([N+](=O)[O-])ccc21 | 9.26 |  |
| C=C(C)C(=O)O | 4.66 |  |
| CC(C#N)C(C)(C)C(=O)O (centres undefined) | 3.97 |  |
| CCC(O)CN(C)CC(O)CC (centres undefined) |  | 9 |
| CCN1CCC[C@@H]1CNC(=O)c1c([O-])cccc1OC |  | 9.54 |
| CCCCCCCCCCCCCCN(CCO)CC(O)CC (centres undefined) |  | 6.1 |
| CNCCc1ccc(O)cc1 |  | 9.36 |
| COC(=O)[n+]1ccc(N)cc1 | 9.15 |  |
| OCc1cccnc1 |  | 5 |
| CC(=O)c1c(C)cc(C)cc1C | 10.7 |  |
| OCCN1CC[NH+](CCCN2c3ccccc3Sc3ccc(Cl)cc32)CC1 |  | 3.59 |
| [NH3+]CCS | 8.4 |  |
| CC(C)(N)Cc1ccccc1 |  | 10.1 |
| O=c1ccccc(O)c1[O-] | 11.5 |  |
| CN(C)Cc1ccccc1 |  | 8.97 |
| OC1(c2cc3ccccc3o2)CN2CCC1CC2 (centres undefined) |  | 8.84 |
| NNC(=O)C(F)F | 9.66 |  |
| ClCCN1CCOCC1 |  | 6.27 |
| CC(=O)Nc1cccc2nc3ccccc3cc12 |  | 4.4 |
| Oc1cc(O)cc(O)c1 | 8.83 |  |

| Compound | pKa (acidic group) | pKa (basic group) |
| --- | --- | --- |
| CN[C@@H]1C[C@@H]1[NH2+]C |  | 3.56 |
| c1ccc(NCCN2CCCCC2)cc1 |  | 9.2 |
| NC12CCC(CC1)C2 |  | 10.2 |
| O=C1/C(=N\O)CC/C1=N\O | 7.95 |  |
| O/N=C1\CCCc2nonc21 | 8.78 |  |
| COc1ccc2[nH]c3c(C)nccc3c2c1 | 14.6 | 7.09 |
| O=[N+]([O-])c1ccc(-n2cnnn2)cc1 |  | -3.92 |
| Cc1nnc(NS(=O)(=O)c2ccc(N)cc2)s1 | 5.46 | 2.19 |
| COc1cc(S(C)=O)ccc1-c1nc2ncncc2[nH]1 (centres undefined) | 8.91 | 2.69 |
| Oc1cccn[nH+]1 | -1.8 |  |
| CC(=O)Nc1ccc(O)cc1 | 9.5 |  |
| CN(C)Cc1c(C(C)(C)C)cccc1C(C)(C)C |  | 9.2 |
| CCOC(=O)C(Cc1ccc([N+](=O)[O-])cc1)C(C)=O (centres undefined) | 11.1 |  |
| C1CN=C2NCCC2C1 (centres undefined) |  | 11.7 |
| Cc1ccc(Cl)cc1/C(=N/CCCN(C)C)c1ccccc1 |  | 8.8 |
| O=C([O-])/C=N/O | 10.2 |  |
| COc1nc2ccccc2nc1OC |  | -1.15 |
| c1cnc2ncncc2n1 |  | 4.13 |
| NC(=O)C(N)CO (centres undefined) | 7.3 |  |
| Cc1c(Cl)cccc1C(=O)O | 3.43 |  |
| Nc1ccccc1[NH3+] |  | 1.3 |
| COc1ccc(Nc2ccccc2)cc1 |  | 1.38 |
| Cc1cccc(C)c1C(=N)c1ccccc1 |  | 7.71 |
| Cc1nn(-c2ccccc2)c(C(=O)[O-])c1C(=O)[O-] |  | 5.89 |
| c1nc(Cc2c[nH]c(Cc3nc(Cc4cnc[nH]4)c[nH]3)[nH+]2)c[nH]1 |  | 6.66 |

| Compound | pKa (acidic group) | pKa (basic group) |
| --- | --- | --- |
| O=C(O)c1cccc([N+](=O)[O-])c1Cl | 2.02 |  |
| O=C(O)c1ccc[n+]([O-])c1 | 2.95 | 0.41 |
| Cn1cc(Cl)cn1 |  | 0.16 |
| NS(=O)(=O)C(F)(F)Br | 6.53 |  |
| Cc1ccc(S(=O)(=O)NCC[NH+](CC(=O)[O-])CC(=O)[O-])cc1 | 7.86 |  |
| CN(C)[C@H]1CCC[C@@H]1C#N |  | 7.02 |
| O=C(C1=C(O)C(=O)c2ccccc2C1=O)c1ccccc1 | 2.17 |  |
| CN(C(=O)c1ccccc1)c1cccnc1 |  | 3.66 |
| CCOC(=O)COc1ccc(Oc2ccc(O)c(C[NH3+])c2)c(Cl)c1Cl | 8.55 |  |
| CSc1cnc2ccccc2c1 |  | 3.88 |
| Cc1ccc(O)c(=O)cc1 | 7.32 |  |
| Cc1c(Cn2ccnc2)n(C)c2ccc(C(=O)[O-])cc12 |  | 6.32 |
| CC[C@]1(c2ccccc2)NC(=O)NC1=O | 8.5 |  |
| CCC#CC#CC#CC(=O)O | 1.67 |  |
| CCOC(=O)CCCCCN |  | 10.4 |
| CC(=O)c1ccc(O)c(=O)cc1 | 5.01 |  |
| CC(C)CCNc1ncnc2[nH]ncc12 |  | 4.62 |
| CCOC(=O)C1CCCC1=O (centres undefined) | 10.7 |  |
| [NH3+]CCC(=O)NC(Cc1c[nH]cn1)C(=O)[O-] (centres undefined) |  | 7.08 |
| COc1nccc(C)n1 |  | 2.1 |
| CCCc1cc(Cl)cc(Cl)c1O | 8.1 |  |
| c1ccc(CNc2ncnc3[nH]cnc23)cc1 |  | 4.09 |
| CCOc1cccc[n+]1O | 1.18 |  |
| C1CNCCNCCN1 |  | 10.6 |
| O=C([O-])C1CCCN1 (centres undefined) |  | 10.6 |

| Compound | pKa (acidic group) | pKa (basic group) |
| --- | --- | --- |
| Clc1ccc2[nH]cnc2c1 |  | 4.86 |
| CC(C)(C)C(=O)NO | 9.59 |  |
| CN(C)C(=S)NCC(=O)O | 3.71 |  |
| O=S1(=O)N=C[N-]c2nc[nH]c21 | 11 |  |
| [NH3+]c1ccc(-c2ncc(-c3ccccc3)o2)cc1 |  | 0.06 |
| CN(C)c1ccc([N+](=O)[O-])c2c(NCCC[NH+](C)C)c3ccccc3nc12 |  | 6.47 |
| Cc1cccnc1/C=N/O | 10.5 |  |
| CN1CC(=O)NC1=O | 11.4 |  |
| Oc1cc(O)c2ccccc2[nH+]1 | 0.76 |  |
| O=C(c1ccccc1)c1cc[nH]n1 | 12 |  |
| C[N+](C)(C)c1ccccc1O | 7.46 |  |
| O=[N+]([O-])c1ccc2[nH]c(-c3ccco3)nc2c1 |  | 2.64 |
| CC(=O)N(O)c1ccccc1 | 8.36 |  |
| Cc1cc(C)c(C(C(=O)O)c2ccccc2)c(C)c1 (centres undefined) | 4 |  |
| CCCc1c(C)[n-]n(C2CCN(C)CC2)c1=O |  | 9.2 |
| C[NH+](C)CC(C)(C)CN |  | 7.4 |
| CC(=O)CCN1CCOCC1 |  | 6.66 |
| CC(=O)c1ccccc1NN=C(C(=O)c1ccccc1)C(=O)c1ccccc1 | 9.2 |  |
| CCOC(=O)c1ccc(O)cc1 | 9.34 |  |
| CCCCNCCCCCCNCCCC |  | 11.3 |
| NOCc1ccc(Cl)cc1 |  | 4.22 |
| NCCCCCc1ccncc1 |  | 10.3 |
| Cc1cc(C(N)=O)cc(C)[n+]1O | 2.08 |  |
| CC(C)C([NH3+])C(=O)O (centres undefined) | 2.41 |  |
| NS(=O)(=O)c1ccccc1C(=O)O |  | 3.14 |

| Compound | pKa (acidic group) | pKa (basic group) |
| --- | --- | --- |
| Nc1cccc([NH3+])c1 |  | 2.46 |
| O=C(O)CC(O)c1ccccc1 (centres undefined) | 4.4 |  |
| C#CCCCN |  | 10.2 |
| Oc1ccc(O)c(Br)c1 | 8.67 |  |
| Oc1cccc2cc3ccccc3cc12 | 9.88 |  |
| C=C(C(=O)O[C@H]1C[C@@H]2[C@@H]3O[C@@H]3[C@H](C1)N2C)c1ccccc1 |  | 7.72 |
| Cc1ccc(C(=S)Nc2ccc(Cl)cc2)cc1 | 10.8 |  |
| CCN1[C@@H](C)[C@@H]1C (some centres undefined) |  | 9.41 |
| O=C(O)/C=C/c1ccoc1 | 4.31 |  |
| Cc1nn(-c2ccccc2)c(O)c1C(C)C | 11.6 |  |
| c1ccc(Cn2ccnc2)cc1 |  | 6.66 |
| Oc1c(Cl)cc(Cl)cc1C[NH+]1CCCCC1 | 5.97 |  |
| Cc1[nH]c2ccc(N)cc2[nH+]1 |  | 3.12 |
| COc1cc(C)ncn1 |  | 3.65 |
| Cc1ccc(O)c2[n+]1CCS2 | 4.7 |  |
| CCC(C)NC(C)C (centres undefined) |  | 11 |
| CCCCCN(CC(C)O)CC(C)O (centres undefined) |  | 9 |
| Nc1cc([O-])ccc1O | 11.2 |  |
| c1cc(-c2ccncc2)ccn1 |  | 4.82 |
| CCN(CC)CCNc1nc(C)nc(Nc2ccc(Cl)cc2)n1 |  | 9.3 |
| NC(=O)/C=C(\O)c1ccncc1 |  | 7.36 |
| c1ccc2nc3ccc4ccccc4c3cc2c1 |  | 4.39 |
| Nc1cccc(-c2ccccn2)n1 |  | 5.8 |
| O/C(=C/c1ccncc1)c1ccccc1 | 10.3 | 6.21 |
